Where a name gives a salt, the structure may show the parent alone.
biological target: T1, CHOK1 cells engineered to overexpress human CCR2 (Homo sapiens, UniProt P41597); assay: Antibody dependent cellular cytotoxicity (ADCC) reporter assay (Example 199); assay type: cell-based; details: with anti-cotinine antibody SEQ ID NO: 11/12; CHOK1-human CCR2 target cells, Jurkat FcγRIIIa NFAT-luciferase reporter cells; 12-18 hours; read-out: ADCC Reporter Assay pEC50 (converted)
T1 construct: expressed in transfected cells; host or cells: CHOK1 cells
Experimental: An antibody dependent cellular cytoxicity reporter assay was conducted using the following four assay components: (i) ARM compound of Formula (I) targeting CCR2 (concentrations ranging from 1 pM to 10 μM) (ii) anti-cotinine antibody having a heavy chain sequence of SEQ ID NO: 11 and a light chain sequence of SEQ ID NO: 12 (rabbit variable region with human IgG1 Fc domain containing a DE mutation (S239D/1332E)) (concentrations ranging from 0.01 μg/mL to 200 μg/mL); (iii) target cells: CHOK1 cells engineered to overexpress either human CCR2 (typically 1000-20,000 cells per well) and (iv) reporter cells: Jurkat cells engineered to express FcγRIIIa with the reporter gene luciferase under the control of the NFAT promoter (typically 3000-75,000 cells per well). Reagents were combined in a final volume of 20 μL in a 384-well tissue culture treated plate. All four assay components were incubated together for about 12-18 hours. Thereafter, BioGlo Detection reagent (Promega) was added to the wells to lyse the cells and provide a substrate for the luciferase reporter protein. Luminescence signal was measured on a microplate reader and signal:background was calculated by dividing the signal of a test well by the signal obtained when no heterobivalent compound of Formula (I) was added. EC50 calculations were done using Graphpad Prism Software, specifically a nonlinear regression curve fit (Y=Bottom+(Top−Bottom)/(1+10^((Log EC50−X)*HillSlope))).
ARMs compounds of Formula (I) of the invention were tested for ADCC activity in the above assay in or more experimental runs and the results are shown in Table 3 below. Potency of the compounds of Formula (I) of the invention is reported as a pEC50 value. The pEC50 value is the negative log of the EC50 value, wherein the EC50 value is the half maximal effective concentration measured in molar (M). For compounds tested in more than one experimental run, the pEC50 value is reported as an average.

Structure (SMILES) | EC50 [nM]
CC(C)N(C)[C@@H]1CC[C@H](N2CC[C@H](Nc3ncnc4ccc(C(F)(F)F)cc34)C2=O)[C@H](NC(=O)[C@H]2CC[C@H](N3CCC(C(=O)NCCOCCOCCNC(=O)[C@H]4CC(=O)N(C)[C@@H]4c4cccnc4)CC3)CC2)C1 [Example 135] | 2.51
CC(C)N(C)[C@@H]1CC[C@H](N2CC[C@H](Nc3ncnc4ccc(C(F)(F)F)cc34)C2=O)[C@H](NC(=O)CNC(=O)[C@H]2CC[C@@H](NC(=O)COCCOCCNC(=O)[C@H]3CC(=O)N(C)[C@@H]3c3cccnc3)CC2)C1 [Example 136, (2S,3S)-N-(2-(2-(2-(((1S,4R)-4-((2-(((1R,2S,5R)-5-(Isopropyl(methyl)amino)-2-((S)-2-oxo-3-((6-(trifluoromethyl)quinazolin-4-yl)amino)pyrrolidin-1-yl)cyclohexyl)amino)-2-oxoethyl)carbamoyl)cyclohexyl)amino)-2-oxoethoxy)ethoxy)ethyl)-1-methyl-5-oxo-2-(pyridin-3-yl)pyrrolidine-3-carboxamide] | 4.91
CC(C)N(C)[C@@H]1CC[C@H](N2CC[C@H](Nc3ncnc4ccc(C(F)(F)F)cc34)C2=O)[C@H](NC(=O)[C@H]2CC[C@H](c3ccc(C(=O)NCCOCCOCCNC(=O)[C@H]4CC(=O)N(C)[C@@H]4c4cccnc4)cn3)CC2)C1 [Example 139, 6-((1R,4r)-4-(((1R,2S,5R)-5-(Isopropyl(methyl)amino)-2-((S)-2-oxo-3-((6-(trifluoromethyl)quinazolin-4-yl)amino)pyrrolidin-1-yl)cyclohexyl)carbamoyl)cyclohexyl)-N-(2-(2-(2-((2S,3S)-1-methyl-5-oxo-2-(pyridin-3-yl)pyrrolidine-3-carboxamido)ethoxy)ethoxy)ethyl)nicotinamide] | 3.98
CC(C)N(C)[C@@H]1CC[C@H](N2CC[C@H](Nc3ncnc4ccc(C(F)(F)F)cc34)C2=O)[C@H](NC(=O)[C@H]2CC[C@H](c3ccc(C(=O)NCCOCCOCCNC(=O)[C@H]4CC(=O)N(C)[C@@H]4c4cccnc4)nc3)CC2)C1 [Example 141] | 2
CC(C)N(C)[C@@H]1CC[C@H](N2CC[C@H](Nc3ncnc4ccc(C(F)(F)F)cc34)C2=O)[C@H](NC(=O)C2CCN(CCCCCCCCNC(=O)[C@H]3CC(=O)N(C)[C@@H]3c3cccnc3)CC2)C1 [Example 144, N-((1R,2S,5R)-5-(Isopropyl(methyl)amino)-2-((S)-2-oxo-3-((6-(trifluoromethyl)quinazolin-4-yl)amino)pyrrolidin-1-yl)cyclohexyl)-1-(8-((2S,3S)-1-methyl-5-oxo-2-(pyridin-3-yl)pyrrolidine-3-carboxamido)octyl)piperidine-4-carboxamide, 3Formic acid salt] | 3.16
CC(C)N(C)[C@@H]1CC[C@H](N2CC[C@H](Nc3ncnc4ccc(C(F)(F)F)cc34)C2=O)[C@H](NC(=O)[C@H]2CC[C@@H](N3CCN(CCCCCCCCNC(=O)[C@H]4CC(=O)N(C)[C@@H]4c4cccnc4)CC3)CC2)C1 [Example 145] | 1.58
CC(C)N(C)[C@@H]1CC[C@H](N2CC[C@H](Nc3ncnc4ccc(C(F)(F)F)cc34)C2=O)[C@H](NC(=O)[C@H]2CC[C@H](N3CCN(CCCCCCCCNC(=O)[C@H]4CC(=O)N(C)[C@@H]4c4cccnc4)CC3)CC2)C1 [Example 146] | 0.251
CC(C)N(C)[C@@H]1CC[C@H](N2CC[C@H](Nc3ncnc4ccc(C(F)(F)F)cc34)C2=O)[C@H](NC(=O)C2CCN(CCOCCOCCOCCOCCNC(=O)[C@H]3CC(=O)N(C)[C@@H]3c3cccnc3)CC2)C1 [Example 147] | 1.26
CC(C)N(C)[C@@H]1CC[C@H](N2CC[C@H](Nc3ncnc4ccc(C(F)(F)F)cc34)C2=O)[C@H](NC(=O)[C@H]2CC[C@@H](C(=O)NCCCN3CCN(CCCNC(=O)[C@H]4CC(=O)N(C)[C@@H]4c4cccnc4)CC3)CC2)C1 [Example 150, (1 s,4S)-N^1-((1R,2S,5R)-5-(Isopropyl(methyl)amino)-2-((S)-2-oxo-3-((6-(trifluoromethyl)quinazolin-4-yl)amino)pyrrolidin-1-yl)cyclohexyl)-N^4-(3-(4-(3-((2S,3S)-1-methyl-5-oxo-2-(pyridin-3-yl)pyrrolidine-3-carboxamido)propyl)piperazin-1-yl)propyl)cyclohexane-1,4-dicarboxamide] | 3.16
CC(C)N(C)[C@@H]1CC[C@H](N2CC[C@H](Nc3ncnc4ccc(C(F)(F)F)cc34)C2=O)[C@H](NC(=O)COCCCCCCCCCOCCCCCCCNC(=O)[C@H]2CC(=O)N(C)[C@@H]2c2cccnc2)C1 [Example 153, (2S,3S)-N-(7-((9-(2-(((1R,2S,5R)-5-(Isopropyl(methyl)amino)-2-((S)-2-oxo-3-((6-(trifluoromethyl)quinazolin-4-yl)amino)pyrrolidin-1-yl)cyclohexyl)amino)-2-oxoethoxy)nonyl)oxy)heptyl)-1-methyl-5-oxo-2-(pyridin-3-yl)pyrrolidine-3-carboxamide] | 2.51
CC(C)N(C)[C@@H]1CC[C@H](N2CC[C@H](Nc3ncnc4ccc(C(F)(F)F)cc34)C2=O)[C@H](NC(=O)[C@H]2CC[C@H](N3CCN(C(=O)CCCCCCCCNC(=O)[C@H]4CC(=O)N(C)[C@@H]4c4cccnc4)CC3)CC2)C1 [Example 155] | 1.58
CC(C)N(C)[C@@H]1CC[C@H](N2CC[C@H](Nc3ncnc4ccc(C(F)(F)F)cc34)C2=O)[C@H](NC(=O)c2cnn(C3CCN(C(=O)CCCCCCCCCCNC(=O)[C@H]4CC(=O)N(C)[C@@H]4c4cccnc4)CC3)c2)C1 [Example 156] | 0.794
CC(C)N(C)[C@@H]1CC[C@H](N2CC[C@H](Nc3ncnc4ccc(C(F)(F)F)cc34)C2=O)[C@H](NC(=O)C2CC=C(c3ccc(OCCCCCCNC(=O)[C@H]4CC(=O)N(C)[C@@H]4c4cccnc4)cc3)CC2)C1 (stereo partly drawn) [Example 158, (2S,3S)-N-(6-((4′-(((1R,2S,5R)-5-(Isopropyl(methyl)amino)-2-((S)-2-oxo-3-((6-(trifluoromethyl)quinazolin-4-yl)amino)pyrrolidin-1-yl)cyclohexyl)carbamoyl)-2′,3′,4′,5′-tetrahydro-[1,1′-biphenyl]-4-yl)oxy)hexyl)-1-methyl-5-oxo-2-(pyridin-3-yl)pyrrolidine-3-carboxamide] | 2.51
CC(C)N(C)[C@@H]1CC[C@H](N2CC[C@H](Nc3ncnc4ccc(C(F)(F)F)cc34)C2=O)[C@H](NC(=O)CCCCCCCCC(=O)NCCOCCOCCNC(=O)[C@H]2CC(=O)N(C)[C@@H]2c2cccnc2)C1 [Example 159, N^1-((1R,2S,5R)-5-(isopropyl(methyl)amino)-2-((S)-2-oxo-3-((6-(trifluoromethyl)quinazolin-4-yl)amino)pyrrolidin-1-yl)cyclohexyl)-N^10-(2-(2-(2-((2S,3S)-1-methyl-5-oxo-2-(pyridin-3-yl)pyrrolidine-3-carboxamido)ethoxy)ethoxy)ethyl)decanediamide] | 2
CC(C)N(C)[C@@H]1CC[C@H](N2CC[C@H](Nc3ncnc4ccc(C(F)(F)F)cc34)C2=O)[C@H](NC(=O)c2ccnc(CCCOCCOCCOCCOCCNC(=O)[C@H]3CC(=O)N(C)[C@@H]3c3cccnc3)c2)C1 [Example 160, N-((1R,2S,5R)-5-(Isopropyl(methyl)amino)-2-((S)-2-oxo-3-((6-(trifluoromethyl)quinazolin-4-yl)amino)pyrrolidin-1-yl)cyclohexyl)-2-(1-((2S,3S)-1-methyl-5-oxo-2-(pyridin-3-yl)pyrrolidin-3-yl)-1-oxo-5,8,11,14-tetraoxa-2-azaheptadecan-17-yl)isonicotinamide, 3Formic acid salt] | 2
CC(C)N(C)[C@@H]1CC[C@H](N2CC[C@H](Nc3ncnc4ccc(C(F)(F)F)cc34)C2=O)[C@H](NC(=O)CCCCOCCCCCCCCOCCCCNC(=O)[C@H]2CC(=O)N(C)[C@@H]2c2cccnc2)C1 [Example 161, (2S,3S)-N-(4-((8-((5-(((1R,2S,5R)-5-(Isopropyl(methyl)amino)-2-((S)-2-oxo-3-((6-(trifluoromethyl)quinazolin-4-yl)amino)pyrrolidin-1-yl)cyclohexyl)amino)-5-oxopentyl)oxy)octyl)oxy)butyl)-1-methyl-5-oxo-2-(pyridin-3-yl)pyrrolidine-3-carboxamide] | 1.58
CC(C)N(C)[C@@H]1CC[C@H](N2CC[C@H](Nc3ncnc4ccc(C(F)(F)F)cc34)C2=O)[C@H](NC(=O)C2CCN(c3cnc(NCCOCCOCCNC(=O)[C@H]4CC(=O)N(C)[C@@H]4c4cccnc4)cn3)CC2)C1 [Example 162, N-((1R,2S,5R)-5-(Isopropyl(methyl)amino)-2-((S)-2-oxo-3-((6-(trifluoromethyl)quinazolin-4-yl)amino)pyrrolidin-1-yl)cyclohexyl)-1-(5-((2-(2-(2-((2S,3S)-1-methyl-5-oxo-2-(pyridin-3-yl)pyrrolidine-3-carboxamido)ethoxy)ethoxy)ethyl)amino)pyrazin-2-yl)piperidine-4-carboxamide] | 1.58

— patent publication US20250136722A1, “CYTOTOXICITY TARGETING CHIMERAS” (GLAXOSMITHKLINE INTELLECTUAL PROPERTY DEVELOPMENT LIMITED, priority 2021, published 2025)
